The structures appear in SMILES notation. Activity calls are given as the source filed them. The rule behind the calls is not given here. Bounds are passed on as bounds.

For series [1], the species on record is Mus musculus. Kind of series: Evaluated for analgesic activity in mice using Nilsen test. The format is functional.
For series [2], the species on record is Mus musculus. Kind of series: Evaluated for analgesic activity in mice using hot plate method. The format is functional.
A further series concerns the target Opioid receptor (Rattus norvegicus, UniProt P33533+P34975+P33535). Kind of series: Tested for Opioid receptors affinity determined by the capacity to displace bound, radiolabeled dihydromorphine from rat brain homogenates.
For series [3], the species on record is Mus musculus. Kind of series: Evaluated for analgesic activity in mice using writhing test. The series is classed as functional. (Writhing tests count abdominal constrictions after an irritant is injected.)
Series [4] deals with Monkey. As to the kind of experiment: Evaluated for activity in inverted screen assay. The series is classed as functional. Conditions: Cercopithecidae.
Series [5] has as its system Monkey. As to the kind of experiment: Evaluated for depressant effects in photocell activity cages at 10 mg/kg; IA is Inactive. The following applies: Cercopithecidae. Also noted: dose 10 mg/kg. The format is functional, organism-based.
For series [6], the system named is Monkey. Kind of series: Evaluated for depressant effects in photocell activity cages at 60 mg/kg; IA is Inactive. The series is classed as functional, organism-based. Also noted: dose 60 mg/kg. The following applies: Cercopithecidae.
Series [7] deals with Monkey. Kind of series: Evaluated for single dose suppression tests in monkeys at 10 mg/kg; Not Effective (activity in relation to morphine). The series is classed as functional, organism-based. Details: dose 10 mg/kg. Conditions: Cercopithecidae.
The subject of series [8] is Monkey. As to the kind of experiment: Evaluated for single dose suppression tests in monkeys at 2 mg/kg; Not Effective (activity in relation to morphine). The series is classed as functional, organism-based. Details: dose 2 mg/kg. Conditions: Cercopithecidae.
Series [9] relates to Monkey. As to the kind of experiment: Evaluated for single dose suppression tests in monkeys at 5 mg/kg; Not Effective (activity in relation to morphine). The format is functional, organism-based. Also noted: dose 5 mg/kg. Conditions: Cercopithecidae.
A short description of series [10]: Lethal dose in monkeys. The format is toxicity, organism-based. The following applies: cercopithecidae, in vivo.
The species named for series [11] is Mus musculus. As to the kind of experiment: Evaluated for activity in Nilsen test.

For `C=CCN1CCC2(CC1)c1cc(O)ccc1C(C)(C)OC2CC` (configuration not stated), the ED50 in the series filed under Mus musculus [1] and in the series filed under Mus musculus [2] was greater than 30 mg/kg throughout. At Opioid receptor, the Ki – broadly, a measure of affinity in units of concentration, obtained from inhibition or displacement – is 5 µM.

Regarding `CCCCCN1CCC2(CC1)c1cc(O)ccc1C(C)(CC)OC2CC` (configuration not stated), the 50% effective dose (ED50) in the series filed under Mus musculus [1] and in the series listed under Mus musculus [2] was greater than 30 mg/kg each time. The molecule further displayed a Ki at Opioid receptor of 5 µM.

On to `CCC1OC(C)(C)c2ccc(O)cc2C12CCN(C)CC2` (configuration not stated), for which the ED50 in the series filed under Mus musculus [1] and in the series listed under Mus musculus [2] was greater than 30 mg/kg throughout. Further, the inhibition constant (Ki) at Opioid receptor was determined as 10 µM.

Take `CCCCCN1CCC2(CC1)c1cc(O)ccc1C(C)(C)OC2CC` (configuration not stated): the ED50 – broadly, the midpoint of the dose-response relation – in the series listed under Mus musculus [1] is greater than 30 mg/kg; in the series filed under Mus musculus [2] it was greater than 30 mg/kg; in the series listed under Mus musculus [3], 4.2 mg/kg; with Monkey [4], 38 mg/kg. Besides, the ED50 entry in the series on Monkey [5] and in the series with Monkey [6] was “inactive” throughout. In addition, the result in the series on Monkey [7], with Monkey [8] and in the series on Monkey [9] was inactive. In addition, the median lethal dose (LD50) (as a rule, the dose at which mortality reaches 50%) in series [10] is 80 mg/kg. The inhibition constant Ki at Opioid receptor was 2 µM.

In the series filed under Mus musculus [2], `CCC(=O)C1(c2cccc(O)c2)CCN(C)CC1` [KETOBEMIDONE] registered an ED50 of 0.8 mg/kg.

Regarding `CN1CC[C@]23c4c5ccc(O)c4O[C@H]2[C@@H](O)C=C[C@H]3[C@H]1C5` [MORPHINE], in the series filed under Mus musculus [11], the ED50 stood at 0.8 mg/kg.

The values above are taken from ChEMBL document CHEMBL1121460, “Some spiro analogues of the potent analgesic ketobemidone” (J Med Chem, 1980).
